Results as given in patent publication US20030026797A1, “Antifungal compositions” (priority 1996, published 2003).

Experiments:
Rhizoctonia = assay: Soil treatment against Rhizoctonia infection of flower bulbs (visual inspection after 4 weeks); type: in vivo; details: 18° C.
Experimental: Bulbs were planted in pots at standard soil at a depth of 20 cm. Oat borne sclerotia of Rhizoctonia were mixed through the soil to infect the bulbs. Temperature was maintained at 18° C. during the experiment. Experiments were replicated 5 fold. Natamycin and fungal cell wall degrading enzymes were mixed as powders through the soil prior to infection with Rhizoctonia. Natamycin was tested at final concentrations of 1000, 500 and 100 mg/kg. Chitinase and β-1,3-glucanase was mixed through the soil to a final activity of 3600 and 1000 units per kg of soil. After 4 weeks bulbs were monitored for fungal infection by means of visual inspection.

[1] = system: conidia of Fusarium oxysporum; assay: Survival of hot-water treated conidia of Fusarium oxysporum (plating on PDA-V agar); type: cell-based; details: 2 hrs at 43.5° C., 25,000 conidia per ml, no enzymes
Experimental: Viability of conidia of Fusarium oxysporum was measured at the start and at the end of the hot-water treatment. (2 hrs at 43.5° C.).
Five samples of 1 ml were mixed each with 20 ml of PDA containing 50 microgram/ml vendarcin (PDA-V) and poured into petri dishes of 14 cm diameter. Colonies were counted after 2 and 5 days at 25° C.
In the presence of natamycin and fungal cell wall degrading enzymes, 2 samples of 25 ml were taken from the bath at the beginning and the end of the treatment. These samples were centrifuged at 3,000*g for 15 min. The pellet containing the conidia was washed several times with sterile water to remove the antifungal agents, followed by centrifugation and dilution to allow for plating on PDA-V as described above. […]
Chitinase and β-1,3-glucanase respectively were added to the hot-water bath to a final activity of 36,000 and 10,000 units per liter. Units are as defined in Example 1.

**Q.** How did the “Percentage of bulbs showing fungal infection” value (“Percentage” for short) (Rhizoctonia; natamycin 100 mg/kg soil) turn out when `C[C@@H]1C/C=C/C=C/C=C/C=C/[C@H](O[C@@H]2O[C@H](C)[C@@H](O)[C@H](N)[C@@H]2O)C[C@@H]2O[C@](O)(C[C@@H](O)C[C@H]3O[C@@H]3/C=C/C(=O)O1)C[C@H](O)[C@H]2C(=O)O` [Natamycin, natamycin] was run?
**A.** 50%

**Q.** What about the “Percentage” value (Rhizoctonia; natamycin 500 mg/kg soil) of the same compound?
**A.** 42%

**Q.** What about the “Percentage” value (Rhizoctonia; natamycin 1000 mg/kg soil) of the same compound?
**A.** 19%

**Q.** What about the “Surviving conidia per ml” value ([1]; natamycin 100 mg/L in hot-water bath) of the same compound?
**A.** 70 per ml

**Q.** And the “Surviving conidia per ml” value ([1]; natamycin 200 mg/L in hot-water bath)?
**A.** 50 per ml

**Q.** And the “Surviving conidia per ml” value ([1]; natamycin 300 mg/L in hot-water bath)?
**A.** <1 per ml
